Patent publication US20140221639A1, “RADIOLABELED NUCLEOSIDE ANALOGUE, AND PREPARATION METHOD AND USE THEREOF” (Institute of Nuclear Energy Research Atomic Energy Council, …, priority 2011, published 2014)
“And” between values parts separate entries of the source, which are not always exact repeats. Identical values can stand only once. Like-named read-outs stand apart in the source and are kept apart here.

Columns and labels:
[1] = literature; cited from earlier work
[2] = healthy FVB/N mice, intravenous 200 μCi, blood radioactivity
NG4TL4 sarcoma cells = experiment: Study on incorporation in DNA; type: cell-based; conditions: 1 μCi/mL medium, 0.5-8 h
Experimental: DNA was extracted with Genomic DNA Mini Kit (Geneaid Biotech Ltd., Taiwan). NG4TL4 cell lines were harvested and inoculated into a petri dish at 2×10^6. […] At 0.5, 1, 2, 4 and 8 h after incubation, the medium was removed, and the cells was washed two times with ice-cold PBS, and then sheared with trypsin and collected to a centrifuge tube for centrifugation (at […] for 1 min). The supernatant was removed, while 50 μL remaining buffer was left to keep the cells in suspension. 300 μL cell lysis buffer was added to the sample and uniformly mixed, the cells was cultured in a water bath at 60° C. for a sereral minutes till the solution was transparent (the sample was inversed once every 3 min). 2 μL RNAse (25 mg/mL) was added to the sample and uniformly mixed, after 5-min incubation at room temperature, 100 μL protein removal buffer was added to the sample, uniformly mixed immediately, and centrifuged for 3 min at full speed (14000 rpm) after 5-min incubation on ice. The resulting solution was transferred as a suspension to another tube, and isopropanol was added and thoroughly mixed. […] In the test, DNA purity was determined at absorption wavelengths of 260 nm and 280 nm, and the ratio of absorbances (OD260/OD280) was about 1.7.

[3] = Analysis of metabolites in blood and urine through NP-TLC; type: in vivo, FVB/N mice; conditions: NP-TLC CH2Cl2/MeOH = 15/1
Experimental: Blood samples were obtained by heart puncture, and then centrifuged at 13,000 rpm for 10 min. Then, the supernatant (about 300 μL) was placed in a 1.5 mL centrifuge tube containing equal amount of ethanol, and then centrifuged again to obtain the serum.

NG4TL4-WT tumor = experiment: Biodistribution study in tumor-bearing mice; type: in vivo, FVB/N mice; conditions: for Biodistribution Blood / Biodistribution Bone / Biodistribution Kidney / Biodistribution Large Intestine / Biodistribution Liver / Biodistribution Lung / Biodistribution Marrow / Biodistribution Pancreas / Biodistribution Stomach / Biodistribution Tumor / Biodistribution Heart / Biodistribution Spleen / Biodistribution Small Intestine / Biodistribution Muscle: 80~90 μCi tail vein, FVB/N mice with NG4TL4-WT tumor
Source text: […] Tumor and 13 other tissures (blood, heart, lung, liver, stomach, small intestine, large intestine, spleen, pancreas, kidney, bone, marrow, and muscle) were removed, rinsed, weighed, and determined for radioactivity with a γ scintilation counter. Uptake of the radioactive trancers in the tissues (counts per min) was calibrated against decay, normalizedto sample weight, and expressed as percentages of injected dosage per gram of tissue (% ID/g) and aggregation ratio of tumor to blood.

LL/2 cells = experiment: Cellular uptake test (ratio of cell to medium); type: cell-based; conditions: 1, 2, 4 and 8 h
Experimental: (§1) 2×10^6 cells was inoculated in a 15 cm^2 dish containing 14 mL medium supplemented with 10% FBS. […] At specified time points (using I-131 tracer at 1, 2, 4 and 8_h), the cells on the dish was harvested by using a cell scraper. Then, a cell suspension was transferred to a 15 mL centrifuge tube and centrifuged (at 3500 rpm) for 2 min. After centrifugation, 100 μL centrifugate was collected to a preweighed counting tube and directly poured into a maintained medium. Cell pellets were frozen with dry ice, and further collected into another weighed counting tube. […] Accumulation of activity of radioactive trancer in cell in vitro is represented by a radio of cell to medium:
(§2) Uptake experimental results of the two radioactive nucleoside analogues [^131I]IUdR and [^131I]ICdR in cells are as shown in FIGS. 4((a), (b)).

NG4TL4 cells = experiment: Cellular uptake test (ratio of cell to medium); type: cell-based; conditions: 1, 2, 4 and 8 h
Experimental: as §1, §2

[4] = in human body, as shown in literatures; cited from earlier work
[5] = in mice, as shown in literatures; cited from earlier work
[6] = 5 min after ^131I-IUdR at tail vein
[7] = 15 min after ^131I-IUdR at tail vein

## Cc1cn([C@@H]2O[C@H](CO)[C@@H](O)[C@@H]2[18F])c(=O)[nH]c1=O [[^18F]FMAU, 2-[^18F]fluoro-5-methyl-1-β-D-arabinofuranosyluracil]
[1]
  stability in the organism: very stable

## O=c1[nH]c(=O)n([C@H]2C[C@H](O)[C@@H](CO)O2)cc1[131I] [^131I-IUdR, 5-[^124/131I]iodo-2′-deoxyuridine, reference compound]
[2]
  Cmax: 18.91 ± 6.16 % ID/mL
  t1/2α: 4.8 ± 1.2 min
  t1/2β: 2.28 ± 0.90 h
[2]; listed as 131I-IudR
  Cmax: 18.91±6.16 % ID/mL
  t1/2α: 4.8 ± 1.2 min
  t1/2β: 2.28 ± 0.90 h
NG4TL4 sarcoma cells
  incorporation into cells / radioactive accumulation in DNA with time: linearly incorporated
[3]; [6]
  ^131I-IU (%) in Blood: 3.65 ± 3.03%
  ^131I-IU (%) in Urine: 4.45 ± 3.03%
  ^131I-IUdR (%) in Blood: 25.23 ± 2.88%
  ^131I-IUdR (%) in Urine: 8.60 ± 2.88%
  ^131I-I^- (%) in Blood: 71.1% and 71.12 ± 5.83%
  ^131I-I^- (%) in Urine: 88.0% and 86.96 ± 5.83%
[3]; [7]
  ^131I-IU (%) in Blood: 1.58 ± 0.72%
  ^131I-IU (%) in Urine: 2.76 ± 1.23%
  ^131I-IUdR (%) in Blood: 6.42 ± 3.89%
  ^131I-IUdR (%) in Urine: 5.23 ± 2.05%
  ^131I-I^- (%) in Blood: 92.00 ± 4.51%
  ^131I-I^- (%) in Urine: 92.02 ± 3.27%
NG4TL4-WT tumor; 5 min
  Biodistribution Blood: 13.62 ± 1.19 % ID/g
  Biodistribution Bone: 233 ± 035 % ID/g
  Biodistribution Kidney: 18.81 ± 2.44 % ID/g
  Biodistribution Large Intestine: 7.18 ± 038 % ID/g
  Biodistribution Liver: 15.99 ± 2.06 % ID/g
  Biodistribution Lung: 933 + 0.69 % ID/g
  Biodistribution Marrow: 3.98 ± 1.44 % ID/g
  Biodistribution Pancreas: 6.43 ± 0.41 % ID/g
  Biodistribution Stomach: 7.04 ± 0.98 % ID/g
  Biodistribution Tumor: 635 ± 1.93 % ID/g
NG4TL4-WT tumor; 30 min
  Biodistribution Blood: 835 ± 132 % ID/g
  Biodistribution Bone: 2.55 ± 030 % ID/g
  Biodistribution Heart: 3.15 ± 0.4S
  Biodistribution Kidney: 6.95 ± 0.77 % ID/g
  Biodistribution Large Intestine: 5.43 ± 0.88 % ID/g
  Biodistribution Liver: 3.73 ± 0.57 % ID/g
  Biodistribution Lung: 5.80 ± 0.42 % ID/g
  Biodistribution Marrow: 538 ± 1.57 % ID/g
  Biodistribution Pancreas: 5.52 ± 0.84 % ID/g
  Biodistribution Spleen: 6.79 ± 1.66 % ID/g
  Biodistribution Stomach: 24.71 ± 3.20 % ID/g
  Biodistribution Tumor: 6.11 ± 0.97 % ID/g
NG4TL4-WT tumor; 1 h
  Biodistribution Blood: 6.41 ± 036 % ID/g
  Biodistribution Bone: 1.59 ± 039 % ID/g
  Biodistribution Heart: 2.43 ± 0.56 % ID/g
  Biodistribution Large Intestine: 4.73 ± 1.16 % ID/g
  Biodistribution Liver: 2.68 ± 0.48 % ID/g
  Biodistribution Marrow: 9.86 ± 4.50 % ID/g
  Biodistribution Pancreas: 2.84 ± 0.57 % ID/g
  Biodistribution Small Intestine: 6.80 ± 0.81 % ID/g
  Biodistribution Spleen: 4.18 ± 035 % ID/g
  Biodistribution Tumor: 6.61 ± 033 % ID/g
NG4TL4-WT tumor; 2 h
  Biodistribution Blood: 4.19 ± 0.60 % ID/g
  Biodistribution Bone: 132 ± 033 % ID/g
  Biodistribution Liver: 1.67 ± 0.18 % ID/g
  Biodistribution Lung: 2.86 ± 0.55 % ID/g
  Biodistribution Marrow: 6.88 ± 1.19 % ID/g
  Biodistribution Muscle: 0.93 ± 0.14 % ID/g
  Biodistribution Pancreas: 2.50 ± 0.58 % ID/g
  Biodistribution Small Intestine: 6.77 ± 1.50 % ID/g
  Biodistribution Spleen: 3.60 ± 0.40 % ID/g
  Biodistribution Stomach: 15.93 + 333 % ID/g
  Biodistribution Tumor: 5.63 ± 0.74 % ID/g
NG4TL4-WT tumor; 4 h
  Biodistribution Blood: 1.96 ± 0.49 % ID/g
  Biodistribution Bone: 0.62 ± 0.29 % ID/g
  Biodistribution Heart: 0.88 ± 0.46 % ID/g
  Biodistribution Kidney: 1.77 ± 0.71 % ID/g
  Biodistribution Lung: 1.60 ± 0.71 % ID/g
  Biodistribution Marrow: 6.63 ± 3.84 % ID/g
  Biodistribution Muscle: 0.53 ± 0.26 % ID/g
  Biodistribution Pancreas: 1.18 ± 0.56 % ID/g
  Biodistribution Small Intestine: 4.76 ± 1.26 % ID/g
  Biodistribution Spleen: 1.86 ± 0.63 % ID/g
  Biodistribution Stomach: 4.49 ± 3.02 % ID/g
  Biodistribution Tumor: 3.97 ± 1.00 % ID/g
NG4TL4-WT tumor; 8 h
  Biodistribution Blood: 0.48 ± 0.23 % ID/g
  Biodistribution Bone: 036 ± 0.12 % ID/g
  Biodistribution Heart: 0.19 ± 0.09 % ID/g
  Biodistribution Kidney: 0.56 ± 0.21 % ID/g
  Biodistribution Large Intestine: 1.78 ± 0.57 % ID/g
  Biodistribution Lung: 0.44 ± 0.21 % ID/g
  Biodistribution Marrow: 5.00 ± 1.59 % ID/g
  Biodistribution Muscle: 0.13 ± 0.03 % ID/g
  Biodistribution Small Intestine: 3.40 ± 0.60 % ID/g
  Biodistribution Tumor: 2.50 ± 0.79 % ID/g
NG4TL4-WT tumor; mice
  excretion of drug and metabolites: mainly through the urinary system
NG4TL4-WT tumor; tumor-bearing mice
  accumulation in organs (biodistribution and imaging): obviously accumulated in organs that rapidly proliferates
LL/2 cells
  uptake value over time: continuously increased with time
NG4TL4 cells
  uptake value over time: continuously increased with time

## O=c1[nH]c(=O)n([C@H]2C[C@H](O)[C@@H](CO)O2)cc1I [IUdR]
[4]
  in vivo physiological half life: 5 min
[5]
  in vivo physiological half life: 7 min
